Reference: patent US20230098254A1, “SCUTELLARIAE RADIX COMPOUNDS AND USE THEREOF FOR INHIBITING OXIDATIVE PHOSPHORYLATION PATHWAY OF MITOCHONDRIA” (priority 2020, published 2023)
Like-named read-outs stand apart in the source and are kept apart here.

Assays:
NCI-H82 cell [1] = test: Mitochondria membrane potential difference by TMRM, NCI-H82 cell; format: cell-based
Source text: (§1) For cells with active mitochondria permeability transition pore, adding peroxide (such as H2O2) could increase the activity of mitochondria permeability transition pore, resulting in a decrease in mitochondria membrane potential.
(§2) The mitochondria membrane potential difference was detected by Tetramethylrhodamine (TMRM), the high fluorescence intensity of TMRM represented the high membrane potential difference.

Daoy cell [2] = test: Mitochondria membrane potential difference by TMRM, Daoy cell; format: cell-based, human
Source text: as §1, §2

NCI-H82 cell [3] = test: Cell viability, Promega CellTiter-Glo, NCI-H82 cell; format: cell-based; conditions: NCI-H82 cell without CSA (inactive mPTP); read-out: IC50 of cell viability inhibition
Experimental: (§3) Cell viability was detected by using the Promega CellTiter-Glo kit, the kit reflected cell viability by directly measuring intracellular ATP content. […] Daoy cell and NCI-H82 cell were cultured in DMEM containing 10% FBS (plus p/s).

[4] = tested on: oxidative phosphorylation pathway of mitochondria; test: Cellular oxygen consumption (OCR), XFe metabolic analysis system; format: cell-based; conditions: NCI-H82 cell; 118.2 μM; within half an hour; FIG. 1
Experimental: The oxygen required by cell was mainly consumed in the mitochondria respiratory chain, so the measurement of cellular oxygen consumption (OCR, oxygen consumption rate) could directly reflect the activity of the oxidative phosphorylation pathway of mitochondria. In this experiment, the XFe metabolic analysis system was used to measure the oxygen consumption of NCI-H82 cell in the presence or absence of Compound SJ2858 (baicalein) and Compound SJ2775 (baicalin).
Rotenone (abbreviated as RO, 0.5 μM) is a known inhibitor of mitochondria oxidative phosphorylation pathway complex I, Antimycin A (abbreviated as AA, 0.5 μM) is a known inhibitor of mitochondria oxidative phosphorylation pathway complex III. Compound SJ2858, 73.2 μM; Compound SJ2775, 118.2 μM.

Daoy cell [5] = test: Cell viability, Promega CellTiter-Glo, Daoy cell; format: cell-based, human; conditions: read-out: IC50 of cell viability inhibition
Experimental: as §3

Compound	Effect on membrane potential (in words) (NCI-H82 cell [1])	Relative TMRM signal intensity (%), mean value (NCI-H82 cell [1]; H2O2 +, CsA −) [%]	Effect on membrane potential (in words) (Daoy cell [2])	Relative TMRM signal intensity (%), mean value (Daoy cell [2]; H2O2 +, CsA −) [%]	IC50 (NCI-H82 cell [3]) [µM]	Inhibition of oxygen consumption (in words) [4]	IC50 (Daoy cell [5]; Daoy cell with CSA (1.5 μM mPTP inhibitor)) [µM]	IC50 (Daoy cell [5]; Daoy cell without CSA (active mPTP)) [µM]
OO [Compound H2O2, H2O2]	not affected	119	down-regulated	82	–	–	–	–
O=C(O)[C@H]1O[C@@H](Oc2cc3oc(-c4ccccc4)cc(=O)c3c(O)c2O)[C@H](O)[C@@H](O)[C@@H]1O [Compound SJ2775, baicalin]	–	–	–	–	38.6	significantly inhibit	45.4	> 100
